Columns and labels:
VERPE = test: Post-emergence herbicidal effect, greenhouse pot test; format: in vivo, Veronica persica; settings: Veronica persica, 504 h, read-out: Post-emergence effect against VERPE in %
From the text: (§1) • ALOMY: Alopecurus myosuroides SETVI: Setaria viridis • AVEFA: Avena fatua POLCO: Fallopia convolvulus • AMARE: Amaranthus retroflexus ECHCG: Echinochloa crus-galli • LOLRJ: Lolium rigidum STEME: Stellaria media • VERPE: Veronica persica MATIN: Tripleurospermum inodorum • DIGSA: Digitaria sanguinalis ABUTH: Abutylon threophrasti • TRZAS: Triticum aestivum VIOTR: Viola tricolor • BRSNW: Brassica napus ZEAMX: Zea mays • PHBPU: Ipomoea purpurea GLXMA: Glycine max • ORYSA: Oryza sativa HORMU: Hordeum murinum
(§2) Seeds of monocotyledonous and dicotyledonous weeds and crop plants are placed in sandy loam in plastic or organic planting pots, covered with soil and cultivated in a greenhouse under controlled growth conditions. 2 to 3 weeks after sowing, the trial plants are treated at the one-leaf stage. The compounds of the invention, formulated in the form of wettable powders (WP) or as emulsion concentrates (EC), are then sprayed onto the green parts of the plants as aqueous suspension or emulsion with addition of 0.5% additive at a water application rate of 600 l/ha (converted). After the test plants have been kept in the greenhouse under optimum growth conditions for about 3 weeks, the activity of the preparations is rated visually in comparison to untreated controls. For example, 100% activity=the plants have died, 0% activity=like control plants.
(§3) Tables 20a to 38c below show the effects/crop compatibilities of selected compounds of the general formula (I) on various harmful plants at an application rate corresponding to 20 to 320 g/ha, which were obtained by the trial procedure specified above.

ALOMY = test: as above; format: in vivo, Alopecurus myosuroides; settings: Alopecurus myosuroides, 504 h, visual rating about 3 weeks after treatment, read-out: Post-emergence effect against ALOMY
From the text: as §1, §2, §3

SETVI = test: as above; format: in vivo, Setaria viridis; settings: Setaria viridis, 504 h, read-out: Post-emergence effect against SETVI in %
From the text: as §1, §2, §3

MATIN = test: as above; format: in vivo, Tripleurospermum inodorum; settings: Tripleurospermum inodorum, 504 h, read-out: Post-emergence effect against MATIN in %
From the text: as §1, §2, §3

LOLRI = test: as above; format: in vivo, Lolium rigidum; settings: Lolium rigidum, 504 h, read-out: Post-emergence effect against LOLRI in %
From the text: as §1, §2, §3

ABUTH = test: as above; format: in vivo, Abutilon theophrasti; settings: Abutilon theophrasti, 504 h, visual rating about 3 weeks after treatment, read-out: Post-emergence effect against ABUTH
From the text: as §1, §2, §3

PHBPU = test: as above; format: in vivo, Ipomoea purpurea; settings: Ipomoea purpurea, 504 h, read-out: Post-emergence effect against PHBPU in %
From the text: as §1, §2, §3

VIOTR = test: as above; format: in vivo, Viola tricolor; settings: Viola tricolor, 504 h, read-out: Post-emergence effect against VIOTR in %
From the text: as §1, §2, §3

POLCO = test: as above; format: in vivo, Fallopia convolvulus; settings: Fallopia convolvulus, 504 h, read-out: Post-emergence effect against POLCO in %
From the text: as §1, §2, §3

AVEFA = test: as above; format: in vivo, Avena fatua; settings: Avena fatua, 504 h, visual rating about 3 weeks after treatment, read-out: Post-emergence effect against AVEFA
From the text: as §1, §2, §3

KCHSC = test: as above; format: in vivo; settings: 504 h, 320 g/ha, read-out: Post-emergence effect against KCHSC in %
Protocol: as §2, with “plants. Tables 20a to 38c below show the effects/crop compatibilities of selected compounds of the general formula (I) on various harmful plants at an application rate corresponding to 20 to 320 g/ha, which were obtained by the trial procedure specified above.” for “plants.”

ECHCG = test: as above; format: in vivo, Echinochloa crus-galli; settings: Echinochloa crus-galli, 504 h; for pest or weed control at 80 g/ha / pest or weed control at 320 g/ha: read-out: Post-emergence effect against ECHCG in %
From the text: as §1, §2, §3

DIGSA = test: as above; format: in vivo, Digitaria sanguinalis; settings: Digitaria sanguinalis, 504 h, visual rating about 3 weeks after treatment, read-out: Post-emergence effect against DIGSA
From the text: as §1, §2, §3

AMARE = test: as above; format: in vivo, Amaranthus retroflexus; settings: Amaranthus retroflexus, 504 h, visual rating about 3 weeks after treatment, read-out: Post-emergence effect against AMARE
From the text: as §1, §2, §3

ZEAMX = test: Post-emergence herbicidal effect and crop plant compatibility, greenhouse pot test; format: in vivo, Zea mays; settings: Zea mays, 504 h, 20 g/ha, one-leaf stage, rated visually after about 3 weeks vs untreated controls, read-out: Post-emergence effect at 20 g/ha against ZEAMX in %
From the text: as §1, §2, §3

With `COC(Oc1nn(-c2cc(F)ccc2F)c(-c2cncc(F)c2)c1C1CC1)C(=O)O` (centres unmarked) [Example I-109] the pest or weed control at 20 g/ha (VERPE) was 80%, the pest or weed control at 80 g/ha (VERPE) was 80% and the pest or weed control at 320 g/ha (VERPE) was 80%. The pest or weed control at 320 g/ha (ALOMY) was 90%, the pest or weed control at 320 g/ha (SETVI) was 80% and the pest or weed control at 320 g/ha (MATIN) was 80%. For the same molecule, the pest or weed control at 80 g/ha (LOLRI) was 90%, the pest or weed control at 320 g/ha (LOLRI) was 90% and the pest or weed control at 20 g/ha (ABUTH) was 80%. For the same molecule, the pest or weed control at 80 g/ha (ABUTH) was 80%, the pest or weed control at 320 g/ha (ABUTH) was 90% and the pest or weed control at 80 g/ha (PHBPU) was 90%. For the same molecule, the pest or weed control at 320 g/ha (PHBPU) was 90%, the pest or weed control at 80 g/ha (VIOTR) was 90% and the pest or weed control at 320 g/ha (VIOTR) was 90%. The pest or weed control at 80 g/ha (POLCO) was 80%, the pest or weed control at 320 g/ha (POLCO) was 90% and the pest or weed control at 80 g/ha (AVEFA) was 80%. It also gave a pest or weed control at 320 g/ha (AVEFA) of 90%, a pest or weed control at 320 g/ha (KCHSC) of 80% and a pest or weed control at 20 g/ha (ECHCG; 20 g/ha, visual rating about 3 weeks after treatment, read-out: Post-emergence effect against ECHCG) of 80%. The pest or weed control at 80 g/ha (ECHCG) was 90% and the pest or weed control at 320 g/ha (ECHCG) was 90%.

Molecule `COC(=O)C(OC)Oc1nn(-c2cc(F)ccc2F)c(-c2cncc(F)c2)c1Br` (centres unmarked) [Example I-29] has a pest or weed control at 80 g/ha (VERPE) of 90%, a pest or weed control at 320 g/ha (VERPE) of 90% and a pest or weed control at 320 g/ha (ALOMY) of 90%. For the same molecule, the pest or weed control at 80 g/ha (SETVI) was 90%, the pest or weed control at 320 g/ha (SETVI) was 90% and the pest or weed control at 20 g/ha (MATIN) was 80%. The pest or weed control at 80 g/ha (MATIN) was 90%, the pest or weed control at 320 g/ha (MATIN) was 90% and the pest or weed control at 320 g/ha (DIGSA) was 80%. For the same molecule, the pest or weed control at 80 g/ha (AMARE) was 90%, the pest or weed control at 320 g/ha (AMARE) was 90% and the pest or weed control at 320 g/ha (LOLRI) was 90%. It also gave a pest or weed control at 80 g/ha (ABUTH) of 80%, a pest or weed control at 320 g/ha (ABUTH) of 90% and a pest or weed control at 20 g/ha (PHBPU) of 80%. It also gave a pest or weed control at 80 g/ha (PHBPU) of 80%, a pest or weed control at 320 g/ha (PHBPU) of 90% and a pest or weed control at 20 g/ha (VIOTR) of 80%. For the same molecule, the pest or weed control at 80 g/ha (VIOTR) was 90%, the pest or weed control at 320 g/ha (VIOTR) was 90% and the pest or weed control at 320 g/ha (POLCO) was 80%. It also gave a pest or weed control at 80 g/ha (AVEFA) of 90%, a pest or weed control at 320 g/ha (AVEFA) of 90% and a pest or weed control at 80 g/ha (ECHCG) of 80%. It also gave a pest or weed control at 320 g/ha (ECHCG) of 90%.

With `CCOC(=O)C(OC)Oc1nn(-c2cc(F)ccc2F)c(-c2cncc(F)c2)c1C1CC1` (centres unmarked) [Example I-37] the pest or weed control at 20 g/ha (VERPE) was 90%, the pest or weed control at 80 g/ha (VERPE) was 100% and the pest or weed control at 320 g/ha (VERPE) was 100%. It also gave a pest or weed control at 80 g/ha (ALOMY) of 100%, a pest or weed control at 320 g/ha (ALOMY) of 100% and a pest or weed control at 80 g/ha (SETVI) of 90%. The pest or weed control at 320 g/ha (SETVI) was 90%, the pest or weed control at 20 g/ha (MATIN) was 80% and the pest or weed control at 80 g/ha (MATIN) was 90%. It also gave a pest or weed control at 320 g/ha (MATIN) of 90%, a pest or weed control at 320 g/ha (DIGSA) of 90% and a pest or weed control at 80 g/ha (AMARE) of 90%. It also gave a pest or weed control at 320 g/ha (AMARE) of 90%, a pest or weed control at 80 g/ha (LOLRI) of 90% and a pest or weed control at 320 g/ha (LOLRI) of 100%. The pest or weed control at 20 g/ha (ABUTH) was 80%, the pest or weed control at 80 g/ha (ABUTH) was 90% and the pest or weed control at 320 g/ha (ABUTH) was 90%. The pest or weed control at 20 g/ha (PHBPU) was 90%, the pest or weed control at 80 g/ha (PHBPU) was 90% and the pest or weed control at 320 g/ha (PHBPU) was 90%. It also gave a pest or weed control at 20 g/ha (VIOTR) of 80%, a pest or weed control at 80 g/ha (VIOTR) of 90% and a pest or weed control at 320 g/ha (VIOTR) of 90%. For the same molecule, the pest or weed control at 80 g/ha (POLCO) was 90%, the pest or weed control at 320 g/ha (POLCO) was 90% and the pest or weed control at 80 g/ha (AVEFA) was 80%. It also gave a pest or weed control at 320 g/ha (AVEFA) of 90%, a pest or weed control at 80 g/ha (ECHCG) of 100% and a pest or weed control at 320 g/ha (ECHCG) of 100%.

Molecule `COC(=O)C(OC)Oc1nn(-c2ccccc2)c(-c2ccc(F)nc2)c1Cl` (centres unmarked) [Example I-26] has a pest or weed control at 80 g/ha (VERPE) of 90%, a pest or weed control at 320 g/ha (VERPE) of 90% and a pest or weed control at 80 g/ha (ALOMY) of 90%. For the same molecule, the pest or weed control at 320 g/ha (ALOMY) was 90%, the pest or weed control at 320 g/ha (SETVI) was 90% and the pest or weed control at 20 g/ha (MATIN) was 80%. The pest or weed control at 80 g/ha (MATIN) was 80%, the pest or weed control at 320 g/ha (MATIN) was 80% and the pest or weed control at 80 g/ha (DIGSA; 80 g/ha) was 80%. The pest or weed control at 320 g/ha (DIGSA) was 90%, the pest or weed control at 20 g/ha (AMARE; 20 g/ha) was 80% and the pest or weed control at 80 g/ha (AMARE) was 80%. For the same molecule, the pest or weed control at 320 g/ha (AMARE) was 80%, the pest or weed control at 80 g/ha (LOLRI) was 90% and the pest or weed control at 320 g/ha (LOLRI) was 90%. The plant injury at 20 g/ha (ZEAMX) was 20%, the pest or weed control at 320 g/ha (ABUTH) was 90% and the pest or weed control at 20 g/ha (PHBPU) was 80%. For the same molecule, the pest or weed control at 80 g/ha (PHBPU) was 80%, the pest or weed control at 320 g/ha (PHBPU) was 90% and the pest or weed control at 80 g/ha (VIOTR) was 80%. The pest or weed control at 320 g/ha (VIOTR) was 80%, the pest or weed control at 80 g/ha (AVEFA) was 80% and the pest or weed control at 320 g/ha (AVEFA) was 90%. For the same molecule, the pest or weed control at 80 g/ha (ECHCG) was 80% and the pest or weed control at 320 g/ha (ECHCG) was 90%.
